Measured values as given in patent US20240239735A1, “ACID ADDITION SALT OF ROCK INHIBITOR, AND CRYSTAL FORM, COMPOSITION AND PHARMACEUTICAL USE THEREOF” (WUHAN LL SCIENCE AND TECHNOLOGY DEVELOPMENT CO., LTD., priority 2021, published 2024).
Values after ≈ are worked out from the molar mass of the structure shown. Like-named read-outs stand apart in the source and are kept apart here.

How the values were obtained:
[1] = Hygroscopicity test by dynamic vapor sorption (DVS); type: physicochemical; settings: for DVS weight gain (Wt. gain %): 25° C.; for Hygroscopicity: DVS, assessment in words
Protocol: The sample was subjected to water adsorption/desorption tests using a Vsorp (ProUmid GmbH & Co. KG, Germany) water adsorption analyzer. The sample was placed in a tared sample tray, and the change in the sample mass with humidity (0-90% RH) at 25° C. was recorded.

[2] = Solid state stability test (HPLC purity, XRPD); type: physicochemical; settings: for Initial purity (Area %): 0 weeks; for Initial purity (Area %) / Purity (Area %): 265 nm; for Physical and chemical stability: 60° C./sealed and 40° C./75% RH open
Protocol: (§1) The instrument used for HIPLC analysis was Agilent TIPLC 1260 series.
The samples after being stored 0 days, 1 week, and 2 weeks were taken and each dissolved in a diluent to prepare about 1.0 mg/mL solution, which was tested for chemical stability by HPLC. The solid sample after being stored for 1 week or 2 weeks was tested for physical stability by XRPD.

[3] = Solubility test in biologically relevant media at 37° C. (HPLC, pH, XRPD of filter cake); type: physicochemical
Protocol: as §1
The suspension was incubated by shaking on a shaker at 100 rpm at 37° C. 1 mL of the dispersion was taken at 0.5 h, 2 h, and 24 h, and filtered. The filtrate was tested for the solubility by HPLC and for the pH value by a pH meter. The filter cake was characterized for the crystal form by XRPD.

[4] = Pharmacokinetic study in SD rats, intragastric administration; type: in vivo; settings: for Cmax: compound A in plasma; for Exposure of compound A relative to administration of the free base: same dose
Protocol: In the experiment, 12 SD rats (purchased from Beijing Vital River Laboratory Animal Technology Co., Ltd.) weighing 180-280 g, half male and female, were used. The animals were randomly divided into four groups of 3 animals each, with female rats in the first and third groups and male rats in the second and fourth groups.
Blood was collected from the orbital venous plexus of rats at various time points (0.167 h, 0.5 h, 1 h, 2 h, 3 h, 4 h, 6 h, 9 h, 12 h, and 24 h) after administration. The concentration of compound A in the plasma was determined.
Data will be analyzed by a non-compartmental model using WinNonlin (version 5.2.1 Pharsight, Mountain View, CA) to obtain PK parameters (parameters selected for different routes of administration, such as C0, Cmax, Tmax, AUC0-last, AUCinf, T1/2, CL, and Vz).

[5] = SGF medium, 0.5 h, rounded values
[6] = female SD rats, 20 mg/kg in 5% TPGS, 20 mg/kg
[7] = female, SD, rat, plasma, po, 20 mg/kg, female SD rats, 20 mg/kg in 5% TPGS
[8] = male SD rats, 20 mg/kg in 5% TPGS, 20 mg/kg
[9] = male, SD, rat, plasma, po, 20 mg/kg, male SD rats, 20 mg/kg in 5% TPGS

For COc1cccc(CNC(=O)N2CCc3cc(-c4c[nH]nc4N)c(F)cc32)c1 [Oxalate crystal form I], the “XRPD pattern / crystal form before and after the DVS test” value [1] was “crystal form remained unchanged”, the “DVS weight gain (Wt. gain %)” value ([1]; 0.0% RH to 80% RH) was 2.3% and the “DVS weight gain (Wt. gain %)” value ([1]; 0.0% RH to 90% RH) was 3.1%. The Hygroscopicity [1] was “slightly hygroscopic”, the “Initial purity (Area %)” value ([2]; HPLC method of 7-day test) was 96.97 Area % and the “Purity (Area %)” value ([2]; 1 week, 40° C./75% RH open) was 96.97 Area %. For the same compound, the “Purity (Area %)” value ([2]; 1 week, 60° C./sealed) was 96.13 Area %, the “Physical and chemical stability” value ([2]; one week) was “degraded” and the Solubility ([3]; FaSSIF, 37° C., 0.5 h) was 19.34 µg/mL. The Solubility ([3]; FaSSIF, 37° C., 2 h) was 12.35 µg/mL, the Solubility ([3]; FaSSIF, 37° C., 24 h) was 13.41 µg/mL and the “XRPD (crystal form of filter cake)” value ([3]; FaSSIF, 37° C., 24 h) was “partially dissociated into the free base crystal form II”. It also gave a pH of filtrate ([3]; FaSSIF, 24 h (0 h: 6.50)) of 5.94, a Solubility ([3]; FeSSIF, 37° C., 0.5 h) of 96.23 µg/mL and a Solubility ([3]; FeSSIF, 37° C., 2 h) of 194.1 µg/mL. For the same compound, the Solubility ([3]; FeSSIF, 37° C., 24 h) was 255.4 µg/mL, the “XRPD (crystal form of filter cake)” value ([3]; FeSSIF, 37° C., 24 h) was “Remains unchanged” and the “XRPD (crystal form of filter cake)” value ([3]; FeSSIF, 37° C., 24 h, listed as oxalate crystal form I) was “remained unchanged”. It also gave a pH of filtrate ([3]; FeSSIF, 24 h (0 h: 5.00)) of 4.94, a Solubility [3, 5] of 70 µg/mL and a Solubility ([3]; SGF, 37° C., 0.5 h) of 73.75 µg/mL. For the same compound, the Solubility ([3]; SGF, 37° C., 2 h) was 123.4 µg/mL, the Solubility ([3]; SGF, 37° C., 24 h) was 139.9 µg/mL and the “XRPD (crystal form of filter cake)” value ([3]; SGF, 37° C., 24 h) was “Remains unchanged”. The “XRPD (crystal form of filter cake)” value ([3]; SGF, 37° C., 24 h, listed as oxalate crystal form I) was “remained unchanged” and the pH of filtrate ([3]; SGF, 24 h (0 h: 1.20)) was 1.24.

For COc1cccc(CNC(=O)N2CCc3cc(-c4c[nH]nc4N)c(F)cc32)c1 [Free base crystal form II, 5-(3-amino-1H-pyrazol-4-yl)-6-fluoro-N-(3-methoxybenzyl)indoline-1-carboxamide], the “XRPD pattern / crystal form before and after the DVS test” value [1] was “crystal form remained unchanged”, the “DVS weight gain (Wt. gain %)” value ([1]; 0.0% RH to 80% RH) was 1.3% and the “DVS weight gain (Wt. gain %)” value ([1]; 0.0% RH to 90% RH) was 1.5%. For the same compound, the Hygroscopicity [1] was “slightly hygroscopic”, the AUClast [4, 6] was 14778 ± 3318 ng·h/mL and the AUC(0-inf) [4, 7] was 18160 ± 150 ng·h/mL. The half-life [4, 7] was 2.88 ± 0.46 h, the Cmax ([4]; female, SD, rat, plasma, po, 20 mg/kg, female SD rats, 20 mg/kg in 5% TPGS, read-out: Cmax) was 3620 ± 321 ng/mL and the Tmax ([4]; female, SD, rat, plasma, po, 20 mg/kg, female SD rats, 20 mg/kg in 5% TPGS, read-out: Tmax) was 0.67 ± 0.17 h. The AUCinf [4, 8] was 19790 ± 2233 ng·h/mL, the AUClast [4, 8] was 19604 ± 2132 ng·h/mL and the T1/2 [4, 8] was 3.33 ± 0.40 h. The Tmax [4, 8] was 1.00 ± 0.00 h, the Cmax [4, 8] was 3297 ± 676 ng/mL and the “Initial purity (Area %)” value ([2]; HPLC method of 7-day test) was 98.62 Area %. The “Initial purity (Area %)” value ([2]; HPLC method of 14-day test) was 99.83 Area %, the “Purity (Area %)” value ([2]; 1 week, 40° C./75% RH open) was 98.62 Area % and the “Purity (Area %)” value ([2]; 1 week, 60° C./sealed) was 98.64 Area %. The “Purity (Area %)” value ([2]; 2 weeks, 40° C./75% RH open) was 99.83 Area %, the “Purity (Area %)” value ([2]; 2 weeks, 60° C./sealed) was 99.83 Area % and the “Physical and chemical stability” value ([2]; one week) was “physically and chemically stable”. The “Physical and chemical stability” value ([2]; two weeks) was “physically and chemically stable”, the Solubility ([3]; FaSSIF, 37° C., 0.5 h) was 8.24 µg/mL (≈ 21.6 µM) and the Solubility ([3]; FaSSIF, 37° C., 2 h) was 5.14 µg/mL (≈ 13.5 µM). The Solubility ([3]; FaSSIF, 37° C., 24 h) was 6.44 µg/mL (≈ 16.9 µM), the “XRPD (crystal form of filter cake)” value ([3]; FaSSIF, 37° C., 24 h) was “Remains unchanged” and the “XRPD (crystal form of filter cake)” value ([3]; FaSSIF, 37° C., 24 h, listed as free base crystal form II) was “remained unchanged”. The pH of filtrate ([3]; FaSSIF, 24 h (0 h: 6.50)) was 6.49, the Solubility ([3]; FeSSIF, 37° C., 0.5 h) was 33.38 µg/mL (≈ 87.5 µM) and the Solubility ([3]; FeSSIF, 37° C., 2 h) was 42.87 µg/mL (≈ 112 µM). For the same compound, the Solubility ([3]; FeSSIF, 37° C., 24 h) was 48.68 µg/mL (≈ 128 µM), the “XRPD (crystal form of filter cake)” value ([3]; FeSSIF, 37° C., 24 h) was “Remains unchanged” and the “XRPD (crystal form of filter cake)” value ([3]; FeSSIF, 37° C., 24 h, listed as free base crystal form II) was “remained unchanged”. For the same compound, the pH of filtrate ([3]; FeSSIF, 24 h (0 h: 5.00)) was 4.99, the Solubility [3, 5] was 1000 µg/mL (≈ 2620 µM) and the Solubility ([3]; SGF, 37° C., 0.5 h) was 1010 µg/mL (≈ 2650 µM). The Solubility ([3]; SGF, 37° C., 2 h) was 1027 µg/mL (≈ 2690 µM), the Solubility ([3]; SGF, 37° C., 24 h) was 1167 µg/mL (≈ 3060 µM) and the “XRPD (crystal form of filter cake)” value ([3]; SGF, 37° C., 24 h) was “Remains unchanged”. The “XRPD (crystal form of filter cake)” value ([3]; SGF, 37° C., 24 h, listed as free base crystal form II) was “remained unchanged” and the pH of filtrate ([3]; SGF, 24 h (0 h: 1.20)) was 1.29.

With COc1cccc(CNC(=O)N2CCc3cc(-c4c[nH]nc4N)c(F)cc32)c1 [Fumarate crystal form I] the “XRPD pattern / crystal form before and after the DVS test” value [1] was “crystal form remained unchanged”, the “DVS weight gain (Wt. gain %)” value ([1]; 0.0% RH to 80% RH) was under 0.2% and the “DVS weight gain (Wt. gain %)” value ([1]; 0.0% RH to 80% RH, listed as fumarate crystal form I) was under 0.2%. For the same compound, the “DVS weight gain (Wt. gain %)” value ([1]; 0.0% RH to 90% RH) was under 0.2%, the “DVS weight gain (Wt. gain %)” value ([1]; 0.0% RH to 90% RH, listed as fumarate crystal form I) was under 0.2% and the Hygroscopicity [1] was “non-hygroscopic”. For the same compound, the AUCinf [4, 6] was 33018 ± 1303 ng·h/mL, the AUClast [4, 6] was 32884 ± 1318 ng·h/mL and the T1/2 [4, 6] was 3.01 ± 0.22 h. For the same compound, the Tmax [4, 6] was 0.83 ± 0.17 h, the Cmax [4, 6] was 6357 ± 342 ng/mL and the “Exposure of compound A relative to administration of the free base” value ([4]; female rats) was 2.23 times. The “Exposure of compound A relative to administration of the free base” value ([4]; male rats) was 1.22 times, the AUC(0-inf) [4, 9] was 24100 ± 2900 ng·h/mL and the AUC(0-t) [4, 9] was 23900 ± 2930 ng·h/mL. For the same compound, the half-life [4, 9] was 3.44 ± 0.29 h, the Cmax ([4]; male, SD, rat, plasma, po, 20 mg/kg, male SD rats, 20 mg/kg in 5% TPGS, read-out: Cmax) was 3050 ± 198 ng/mL and the Tmax ([4]; male, SD, rat, plasma, po, 20 mg/kg, male SD rats, 20 mg/kg in 5% TPGS, read-out: Tmax) was 0.67 ± 0.17 h. The “Initial purity (Area %)” value ([2]; HPLC method of 7-day test) was 99.85 Area %, the “Initial purity (Area %)” value ([2]; HPLC method of 14-day test) was 99.73 Area % and the “Purity (Area %)” value ([2]; 1 week, 40° C./75% RH open) was 99.85 Area %. For the same compound, the “Purity (Area %)” value ([2]; 1 week, 60° C./sealed) was 99.86 Area %, the “Purity (Area %)” value ([2]; 2 weeks, 40° C./75% RH open) was 99.74 Area % and the “Purity (Area %)” value ([2]; 2 weeks, 60° C./sealed) was 99.75 Area %. For the same compound, the “Physical and chemical stability” value ([2]; one week) was “physically and chemically stable”, the “Physical and chemical stability” value ([2]; two weeks) was “physically and chemically stable” and the “Crystal form during the solubility test” value ([3]; 0.5 h, FaSSIF and FeSSIF media) was “dissociated into the free base crystal form II”. The “Solubility relative to free base crystal form II” value ([3]; 0.5 h, all three biologically relevant media) was “about twice”, the Solubility ([3]; FaSSIF, 37° C., 0.5 h) was 12.19 µg/mL and the Solubility ([3]; FaSSIF, 37° C., 2 h) was 3.57 µg/mL. The Solubility ([3]; FaSSIF, 37° C., 24 h) was 4.25 µg/mL, the pH of filtrate ([3]; FaSSIF, 24 h (0 h: 6.50)) was 5.96 and the Solubility ([3]; FeSSIF, 37° C., 0.5 h) was 109.2 µg/mL. For the same compound, the Solubility ([3]; FeSSIF, 37° C., 2 h) was 75.30 µg/mL, the Solubility ([3]; FeSSIF, 37° C., 24 h) was 61.39 µg/mL and the pH of filtrate ([3]; FeSSIF, 24 h (0 h: 5.00)) was 4.90. The Solubility [3, 5] was 1900 µg/mL, the Solubility ([3]; SGF, 37° C., 0.5 h) was 1899 µg/mL and the Solubility ([3]; SGF, 37° C., 2 h) was 2135 µg/mL. For the same compound, the Solubility ([3]; SGF, 37° C., 24 h) was 2146 µg/mL, the “XRPD (crystal form of filter cake)” value ([3]; SGF, 37° C., 24 h) was “Trace solid” and the pH of filtrate ([3]; SGF, 24 h (0 h: 1.20)) was 1.29.
